Values after ≈ are worked out from the molar mass of the structure shown.
How the values were obtained:
MCF7 [1] = experiment: Cytotoxicity against human MCF7 cells; format: functional, cell-based
EVSA-T = experiment: Cytotoxicity against human EVSA-T cells; format: functional, cell-based
[2] = Cytotoxicity against human H226 cells; format: functional, cell-based; settings: NCI-H226
[3] = Cytotoxicity against human IGROV cells; format: functional, cell-based
WiDr = experiment: Cytotoxicity against human WIDR cells; format: functional, cell-based
A498 = experiment: Cytotoxicity against human A498 cells; format: functional, cell-based
[4] = tested on: M19 melanoma cell line (human); experiment: Cytotoxicity against human M19 melanoma cells
MDA-MB-231 = experiment: Cytotoxicity against ERalpha negative human MDA-MB-231 cells; format: functional, cell-based
MCF7 [5] = experiment: Cytotoxicity against ERalpha positive human MCF7 cells; format: functional, cell-based
PC-3 = experiment: Cytotoxicity against ERbeta positive human PC3 cells; format: functional, cell-based
A2780 = experiment: Cytotoxicity against ERbeta negative human A2780 cells; format: functional, cell-based

SMILES | IC50 (MCF7 [1]) [mg/L] | IC50 (EVSA-T) [mg/L] | IC50 [2] [mg/L] | IC50 [3] [mg/L] | IC50 (WiDr) [mg/L] | IC50 (A498) [mg/L] | IC50 [4] [mg/L] | IC50 (MDA-MB-231) [µM] | IC50 (MCF7 [5]) [µM] | IC50 (PC-3) [µM] | IC50 (A2780) [µM]
CC(=O)O[C@H]1C(=O)[C@@]2(C)[C@H]([C@H](OC(=O)c3ccccc3)[C@]3(O)C[C@H](OC(=O)[C@H](OC(=O)OC/C=C/c4ccc([N+](=O)[O-])cc4)[C@@H](NC(=O)c4ccccc4)c4ccccc4)C(C)=C1C3(C)C)[C@]1(OC(C)=O)CO[C@@H]1C[C@@H]2O | 0.186 (≈ 0.176 µM) | 0.221 (≈ 0.209 µM) | 0.187 (≈ 0.177 µM) | 0.62 (≈ 0.585 µM) | 0.308 (≈ 0.291 µM) | 0.187 (≈ 0.177 µM) | 0.384 (≈ 0.363 µM) | – | – | – | –
CC(=O)O[C@H]1C(=O)[C@@]2(C)[C@H]([C@H](OC(=O)c3ccccc3)[C@]3(O)C[C@H](OC(=O)[C@@H](OC(=O)/C=C/C[C@@H]4C[C@H]5[C@@H]6CCc7cc(O)ccc7[C@H]6CC[C@]5(C)[C@H]4O)[C@@H](NC(=O)c4ccccc4)c4ccccc4)C(C)=C1C3(C)C)[C@]1(OC(C)=O)CO[C@@H]1C[C@@H]2O | – | – | – | – | – | – | – | 2.2 | 1.6 | 0.12 | 8.3
CC(=O)O[C@H]1C(=O)[C@@]2(C)[C@H]([C@H](OC(=O)c3ccccc3)[C@]3(O)C[C@H](OC(=O)[C@H](OC(=O)N(C)CCNC(=O)[C@H](CCCCN)NC(=O)[C@H](Cc4ccccc4)NC(=O)[C@H](N)C(C)C)[C@@H](NC(=O)c4ccccc4)c4ccccc4)C(C)=C1C3(C)C)[C@]1(OC(C)=O)CO[C@@H]1C[C@@H]2O.Cl | > 0.063 | > 0.063 | 0.048 | 0.045 | 0.047 | > 0.063 | 0.047 | 0.0045 | 0.0049 | 0.077 | –
CC(=O)O[C@H]1C(=O)[C@@]2(C)[C@H]([C@H](OC(=O)c3ccccc3)[C@]3(O)C[C@H](OC(=O)[C@H](OC(=O)N(C)CCN(C)C(=O)[C@H](CCCCN)NC(=O)[C@H](Cc4ccccc4)NC(=O)[C@@H](C)N)[C@@H](NC(=O)c4ccccc4)c4ccccc4)C(C)=C1C3(C)C)[C@]1(OC(C)=O)CO[C@@H]1C[C@@H]2O.Cl | 0.0066 | 0.0072 | 0.021 | 0.011 | 0.01 | 0.038 | 0.017 | 0.0045 | 0.0049 | 0.077 | –
CC(=O)O[C@H]1C(=O)[C@@]2(C)[C@H]([C@H](OC(=O)c3ccccc3)[C@]3(O)C[C@H](OC(=O)[C@H](OC(=O)NCCNC(=O)[C@H](CCCCN)NC(=O)[C@H](Cc4ccccc4)NC(=O)[C@@H](C)N)[C@@H](NC(=O)c4ccccc4)c4ccccc4)C(C)=C1C3(C)C)[C@]1(OC(C)=O)CO[C@@H]1C[C@@H]2O.Cl | 0.016 | 0.011 | 0.041 | 0.019 | 0.013 | 0.04 | 0.045 | 0.0045 | 0.0049 | 0.077 | –
CC(=O)O[C@H]1C(=O)[C@@]2(C)[C@H]([C@H](OC(=O)c3ccccc3)[C@]3(O)C[C@H](OC(=O)[C@H](OC(=O)OCc4ccc(NC(=O)[C@H](CCCCN)NC(=O)[C@H](CC(C)C)NC(=O)[C@H](N)C(C)C)cc4)[C@@H](NC(=O)c4ccccc4)c4ccccc4)C(C)=C1C3(C)C)[C@]1(OC(C)=O)CO[C@@H]1C[C@@H]2O.Cl | 0.0092 | 0.0093 | 0.016 | 0.027 | 0.011 | > 0.06 | 0.02 | – | – | – | –
CC(=O)O[C@H]1C(=O)[C@@]2(C)[C@H]([C@H](OC(=O)c3ccccc3)[C@]3(O)C[C@H](OC(=O)[C@H](OC(=O)N(C)CCN(C)C(=O)[C@H](CCCCN)NC(=O)[C@H](CC(C)C)NC(=O)[C@H](N)C(C)C)[C@@H](NC(=O)c4ccccc4)c4ccccc4)C(C)=C1C3(C)C)[C@]1(OC(C)=O)CO[C@@H]1C[C@@H]2O.Cl | 0.0069 | 0.0052 | 0.025 | 0.026 | 0.011 | 0.045 | 0.024 | 0.0045 | 0.0049 | 0.077 | –
